Laboratory results published in ChEMBL document CHEMBL1201862, “PubChem BioAssay data set” (2004).
Calls of active or inactive are those of the source.

Experiments:
[1] = test system: BJ; assay: cytotoxicity toward BJ-TERT fibroblasts, dose response, cell-based, RAS-independent, luminescence (AID 1933); type: functional; details: Homo sapiens
[2] = test system: INS1; assay: beta cell apoptosis inhibitors, cytokine rescue, dose response, luminescence, retest (AID 449756); type: functional, cell-based; details: Rattus norvegicus;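 further: cell death triggered by IL-1 beta plus TNF-alpha plus IFN-gamma mixture; protective hits raise ATP signal compared with cytokine alone wells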
[3] = target: Luciferin 4-monooxygenase (Photinus pyralis, UniProt P08659); assay: firefly luciferase enzyme inhibitors, dose response, biochemical, luminescence (AID 1891)
[4] = Luminescence Cell-Based Dose Confirmation HTS to Identify Inhibitors of Platelet Dense Granule Release. [Related pubchem assays: 1663 (Primary HTS), 1678 (Summary of Project)]; type: functional
[5] = test system: BJ; assay: cytotoxicity toward BJ-TERT-LT-ST fibroblasts, dose response, cell-based, RAS-independent, luminescence (AID 1935); type: functional; details: Homo sapiens;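 further: BJ fibroblasts immortalized with TERT plus LT and ST oncogenes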
[6] = test system: BJ; assay: cytotoxicity toward Ras-transformed BJeLR fibroblasts, dose response, cell-based, alamar blue fluorescence, cherrypicked samples (AID 2631); type: functional; details: Homo sapiens;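 further: confirmatory dose-response assay in RAS-dependent BJ fibroblasts engineered with TERT, LT and ST, with cytotoxicity read by fluorescence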
[7] = cytotoxicity toward DRD oncogenic fibroblasts, dose response, cell-based, non-viral oncogenic, luminescence (AID 1934); type: functional; details: Homo sapiens
[8] = test system: BJ; assay: cells; type: functional, cell-based, Homo sapiens; details: Homo sapiens, BJ
[9] = HepG2 cell cytotoxicity, dose response, cytotoxicity control, ATP luminescence, cherry-pick, activator set 2 (AID 1053143); type: functional, cell-based
[10] = target: Metabotropic glutamate receptor 3 (Rattus norvegicus, UniProt P31422); assay: mGlu3 negative allosteric modulator potency, dose response, HEK/GIRK cells, thallium flux, rat (AID 651839); type: functional
[11] = inhibitors of CMV-promoter luciferase reporter, dose response, counter-screen for Pax8 inhibitor project, cell-based, HEK293, luminescence, dry powder (AID 743020); type: functional
[12] = target: Paired box protein Pax-8 (Homo sapiens, UniProt Q06710); assay: inhibitors of PAX8-driven TPO luciferase reporter, dose response, RMG-I cells, cherry-pick (AID 687027); type: functional, cell-based;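 further: luciferase reporter driven by Pax8 target thyroperoxidase promoter measured by SteadyGlo luminescence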
[13] = test system: A549; assay: A549 cell toxicity, dose response, cytotoxicity control, plate reader, cherry-pick samples (AID 687028); type: functional, cell-based; details: Homo sapiens
[14] = test system: Vero; assay: Vero cell toxicity, dose response, cytotoxicity control, plate reader, cherry-pick samples (AID 687020); type: functional, cell-based; details: Chlorocebus sabaeus
[15] = target: T1, Trace amine-associated receptor 1 (Homo sapiens, UniProt Q96RJ0); assay: Counterscreen for agonists of the human trace amine associated receptor 1 (hTAAR1): Fluorescence-based cell-based high throughput dose response assay to identify hTAAR1 agonist that also desensitize TAAR1 receptor response.; type: functional
[16] = target: T1, Trace amine-associated receptor 1; assay: Fluorescence-based cell-based high throughput dose response assay to identify agonists of the human trace amine associated receptor 1 (TAAR1).; type: functional
[17] = cells; type: functional, cell-based
[18] = cells; type: functional, cell-based; remark: listed apart in the source
[19] = target: T2, High affinity choline transporter 1 (Homo sapiens, UniProt Q9GZV3); assay: CHT choline uptake inhibitors, dose response, cell-based, HEK-293 hCHT, [3H]-choline uptake (AID 652177); type: functional
T2 sequence (Q9GZV3 whole entry): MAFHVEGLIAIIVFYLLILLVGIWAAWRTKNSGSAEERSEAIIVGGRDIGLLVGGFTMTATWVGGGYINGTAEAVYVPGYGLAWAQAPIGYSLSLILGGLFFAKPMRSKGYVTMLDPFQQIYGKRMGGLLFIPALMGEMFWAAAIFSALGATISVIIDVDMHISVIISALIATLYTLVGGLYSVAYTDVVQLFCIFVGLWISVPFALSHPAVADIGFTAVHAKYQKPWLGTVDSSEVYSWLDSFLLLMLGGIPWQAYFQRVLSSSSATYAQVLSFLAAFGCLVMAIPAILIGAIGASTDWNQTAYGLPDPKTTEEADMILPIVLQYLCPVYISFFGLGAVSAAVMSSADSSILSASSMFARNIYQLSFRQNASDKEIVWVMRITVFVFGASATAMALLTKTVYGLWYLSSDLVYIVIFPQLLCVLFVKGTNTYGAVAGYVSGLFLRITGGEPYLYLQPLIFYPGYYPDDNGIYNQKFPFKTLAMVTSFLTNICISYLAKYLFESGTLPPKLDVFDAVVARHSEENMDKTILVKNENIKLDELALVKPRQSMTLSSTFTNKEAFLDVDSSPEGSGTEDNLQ

[20] = target: ATP-dependent molecular chaperone HSP82 (Candida albicans (strain WO-1) (Yeast), UniProt C4YTQ8); assay: loss of DOC-induced GRE-beta-galactosidase reporter signal, dose response, Hsp90 inhibitor project, S. cerevisiae, luminescence (AID 2400); type: functional, cell-based;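 further: beta-galactosidase luminescence from glucocorticoid response element reporter as proxy for Hsp90 function; inhibitor potency where signal loss means Hsp90 inhibition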
[21] = target: Heat shock protein HSP 90-alpha (Homo sapiens, UniProt P07900); type: functional, organism-based
[22] = C. albicans growth with fluconazole, confirmation, fluorescence, retest (AID 2467); type: functional, cell-based
[23] = target: 1-phosphatidylinositol 4,5-bisphosphate phosphodiesterase gamma-1 (Homo sapiens, UniProt P19174); assay: Counterscreen for inhibitors of phospholipase C isozymes (PLC-B3): Fluorescence-based biochemical high throughput dose response assay to identify inhibitors of phospholipase C isozymes (PLC-gamma1).
[24] = target: 1-phosphatidylinositol 4,5-bisphosphate phosphodiesterase beta-3 (Homo sapiens, UniProt Q01970); assay: Fluorescence-based biochemical high throughput dose response assay to identify inhibitors of phospholipase C isozymes (PLC-B3).
[25] = NIH-3T3 fibroblast cytotoxicity, dose response, cytotoxicity control, cell-based, fluorescence, Alamar Blue, secondary assay (AID 2327); type: functional;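 further: NIH-3T3 mouse fibroblasts cultured with fluconazole at 8 µg/mL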
[26] = target: T3, Serine/threonine-protein phosphatase (Candida dubliniensis (strain CD36 / CBS 7987 / NCPF 3949 / NRRLY-17841) (Yeast), UniProt B9W6M3); assay: calcineurin pathway inhibitors in yeast reporter, dose response, S. cerevisiae, CDRE-lacZ, luminescence, secondary (AID 2388); type: functional, cell-based;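 further: yeast reporter cells carrying a calcineurin-responsive lacZ construct stimulated with calcium chloride; luminescent beta-galactosidase reporter signal in whole cells rather than isolated phosphatase activity; potency for inhibition where a drop in reporter signal means calcineurin blockade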
T3 sequence (B9W6M3 whole entry): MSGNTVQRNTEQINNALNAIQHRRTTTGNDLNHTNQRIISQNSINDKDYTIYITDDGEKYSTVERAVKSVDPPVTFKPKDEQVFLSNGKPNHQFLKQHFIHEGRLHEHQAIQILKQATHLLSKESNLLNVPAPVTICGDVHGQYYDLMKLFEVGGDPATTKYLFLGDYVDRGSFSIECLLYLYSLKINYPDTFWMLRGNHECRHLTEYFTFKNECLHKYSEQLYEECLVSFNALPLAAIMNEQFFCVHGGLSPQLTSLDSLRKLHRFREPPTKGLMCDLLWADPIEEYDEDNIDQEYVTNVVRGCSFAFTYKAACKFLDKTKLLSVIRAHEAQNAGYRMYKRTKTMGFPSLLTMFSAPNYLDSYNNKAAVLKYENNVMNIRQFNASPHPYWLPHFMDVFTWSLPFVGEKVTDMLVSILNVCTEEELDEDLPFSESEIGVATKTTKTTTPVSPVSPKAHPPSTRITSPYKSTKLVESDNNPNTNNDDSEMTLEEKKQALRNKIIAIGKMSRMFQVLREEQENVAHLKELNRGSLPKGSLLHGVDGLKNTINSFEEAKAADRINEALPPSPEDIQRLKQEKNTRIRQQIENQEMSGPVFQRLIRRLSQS

[27] = inhibitors of control Renilla luciferase reporter, dose response, counter-screen for Shn3 3'UTR targeting project, Clone20-Shn3RL cells, dual-Glo, cherry-pick, set 2 (AID 720724); type: functional, cell-based; details: Dual-Go Shn3RL
[28] = growth suppression of beta-catenin-knockout colon cells, dose response, cell-based, HCT116, human colon tumor (AID 1045); type: functional;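 further: HCT116 colon tumor cells with beta catenin knocked out; cells exposed to compound for 60 hours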
[29] = control 3'UTR Renilla luciferase suppression, dose response, counter-screen for Shn3 inhibitor project, cell-based, Clone20-Shn3RL, cherry-picked (AID 624133); type: functional
[30] = Shn3 3'UTR reporter inhibitors, dose response, cell-based, Clone20 osteoblasts, firefly luciferase, cherry-picked (AID 624132); type: functional;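 further: firefly luciferase luminescence from reporter carrying the Shn3 3'UTR in osteoblasts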
[31] = cells; type: functional, cell-based; details: HEK-CNG
[32] = target: T4, Galanin receptor type 3 (Homo sapiens, UniProt O60755); assay: Fluorescence-based cell-based primary high throughput dose response assay to identify antagonists of the Galanin Receptor 3 (GalR3).; type: functional
T4 sequence (O60755 whole entry): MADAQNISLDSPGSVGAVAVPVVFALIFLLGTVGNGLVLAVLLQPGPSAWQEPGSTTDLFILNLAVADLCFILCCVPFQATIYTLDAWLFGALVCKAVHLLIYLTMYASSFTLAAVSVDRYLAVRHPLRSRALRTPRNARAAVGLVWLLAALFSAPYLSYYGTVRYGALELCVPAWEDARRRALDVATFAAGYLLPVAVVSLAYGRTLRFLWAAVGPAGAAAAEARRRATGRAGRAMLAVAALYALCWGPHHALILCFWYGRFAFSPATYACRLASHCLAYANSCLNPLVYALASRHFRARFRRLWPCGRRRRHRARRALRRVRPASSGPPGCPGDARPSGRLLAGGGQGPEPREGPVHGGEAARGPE

[33] = reduction of Shn3 3'UTR firefly luciferase signal, dose response, Schnurri-3 inhibitor project, cell-based, Clone20 osteoblasts, cherry-pick, set 2 (AID 720490); type: functional;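 further: actives lower the luminescence signal as inhibitors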
[34] = HepG2 cell cytotoxicity, dose response, cytotoxicity control for Shn3 inhibitor project, CellTiter-Glo, cherry-picked (AID 624134); type: functional, cell-based

T1 sequence (Q96RJ0 whole entry): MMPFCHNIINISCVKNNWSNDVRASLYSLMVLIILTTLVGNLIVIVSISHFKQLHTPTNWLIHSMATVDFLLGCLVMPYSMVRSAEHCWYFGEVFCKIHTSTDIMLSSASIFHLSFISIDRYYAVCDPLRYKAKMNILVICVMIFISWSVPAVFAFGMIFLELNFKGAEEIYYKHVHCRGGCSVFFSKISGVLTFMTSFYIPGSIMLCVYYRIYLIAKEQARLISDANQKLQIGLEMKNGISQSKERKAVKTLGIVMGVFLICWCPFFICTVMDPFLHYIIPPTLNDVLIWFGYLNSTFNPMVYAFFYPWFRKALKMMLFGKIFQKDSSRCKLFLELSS
Sequence of Luciferin 4-monooxygenase (P08659 whole entry): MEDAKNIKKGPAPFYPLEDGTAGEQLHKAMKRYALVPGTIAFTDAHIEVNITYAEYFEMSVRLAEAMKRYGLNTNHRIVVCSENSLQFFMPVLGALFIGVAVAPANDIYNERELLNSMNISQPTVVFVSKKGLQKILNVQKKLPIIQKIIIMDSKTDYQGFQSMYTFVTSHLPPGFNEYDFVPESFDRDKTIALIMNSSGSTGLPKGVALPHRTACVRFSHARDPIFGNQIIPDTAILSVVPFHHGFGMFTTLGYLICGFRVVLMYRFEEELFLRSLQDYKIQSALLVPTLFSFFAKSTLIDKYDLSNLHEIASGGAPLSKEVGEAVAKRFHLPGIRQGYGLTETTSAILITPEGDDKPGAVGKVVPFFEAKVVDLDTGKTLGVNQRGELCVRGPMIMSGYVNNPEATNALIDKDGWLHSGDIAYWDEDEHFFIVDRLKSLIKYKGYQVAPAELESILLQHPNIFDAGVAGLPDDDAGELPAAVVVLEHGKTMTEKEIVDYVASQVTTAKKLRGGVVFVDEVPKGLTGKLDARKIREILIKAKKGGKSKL
Sequence of ATP-dependent molecular chaperone HSP82 (C4YTQ8 whole entry): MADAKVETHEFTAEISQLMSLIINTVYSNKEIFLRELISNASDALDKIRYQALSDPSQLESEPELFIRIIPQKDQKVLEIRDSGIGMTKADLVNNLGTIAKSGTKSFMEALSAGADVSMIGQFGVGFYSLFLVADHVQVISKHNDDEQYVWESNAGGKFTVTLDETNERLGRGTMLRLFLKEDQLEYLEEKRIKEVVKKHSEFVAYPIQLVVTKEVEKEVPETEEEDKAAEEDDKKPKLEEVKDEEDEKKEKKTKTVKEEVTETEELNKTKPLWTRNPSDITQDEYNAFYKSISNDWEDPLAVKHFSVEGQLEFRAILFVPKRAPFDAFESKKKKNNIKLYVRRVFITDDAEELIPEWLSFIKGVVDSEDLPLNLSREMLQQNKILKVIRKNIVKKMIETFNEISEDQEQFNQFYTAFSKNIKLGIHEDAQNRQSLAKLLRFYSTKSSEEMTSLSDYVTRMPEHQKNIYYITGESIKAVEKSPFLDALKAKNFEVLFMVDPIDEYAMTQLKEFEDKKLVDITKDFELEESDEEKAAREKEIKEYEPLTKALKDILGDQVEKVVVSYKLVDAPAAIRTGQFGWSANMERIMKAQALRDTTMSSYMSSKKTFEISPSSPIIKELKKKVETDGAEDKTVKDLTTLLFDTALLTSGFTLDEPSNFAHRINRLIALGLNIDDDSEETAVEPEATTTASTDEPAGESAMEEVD
Sequence of 1-phosphatidylinositol 4,5-bisphosphate phosphodiesterase beta-3 (Q01970 whole entry): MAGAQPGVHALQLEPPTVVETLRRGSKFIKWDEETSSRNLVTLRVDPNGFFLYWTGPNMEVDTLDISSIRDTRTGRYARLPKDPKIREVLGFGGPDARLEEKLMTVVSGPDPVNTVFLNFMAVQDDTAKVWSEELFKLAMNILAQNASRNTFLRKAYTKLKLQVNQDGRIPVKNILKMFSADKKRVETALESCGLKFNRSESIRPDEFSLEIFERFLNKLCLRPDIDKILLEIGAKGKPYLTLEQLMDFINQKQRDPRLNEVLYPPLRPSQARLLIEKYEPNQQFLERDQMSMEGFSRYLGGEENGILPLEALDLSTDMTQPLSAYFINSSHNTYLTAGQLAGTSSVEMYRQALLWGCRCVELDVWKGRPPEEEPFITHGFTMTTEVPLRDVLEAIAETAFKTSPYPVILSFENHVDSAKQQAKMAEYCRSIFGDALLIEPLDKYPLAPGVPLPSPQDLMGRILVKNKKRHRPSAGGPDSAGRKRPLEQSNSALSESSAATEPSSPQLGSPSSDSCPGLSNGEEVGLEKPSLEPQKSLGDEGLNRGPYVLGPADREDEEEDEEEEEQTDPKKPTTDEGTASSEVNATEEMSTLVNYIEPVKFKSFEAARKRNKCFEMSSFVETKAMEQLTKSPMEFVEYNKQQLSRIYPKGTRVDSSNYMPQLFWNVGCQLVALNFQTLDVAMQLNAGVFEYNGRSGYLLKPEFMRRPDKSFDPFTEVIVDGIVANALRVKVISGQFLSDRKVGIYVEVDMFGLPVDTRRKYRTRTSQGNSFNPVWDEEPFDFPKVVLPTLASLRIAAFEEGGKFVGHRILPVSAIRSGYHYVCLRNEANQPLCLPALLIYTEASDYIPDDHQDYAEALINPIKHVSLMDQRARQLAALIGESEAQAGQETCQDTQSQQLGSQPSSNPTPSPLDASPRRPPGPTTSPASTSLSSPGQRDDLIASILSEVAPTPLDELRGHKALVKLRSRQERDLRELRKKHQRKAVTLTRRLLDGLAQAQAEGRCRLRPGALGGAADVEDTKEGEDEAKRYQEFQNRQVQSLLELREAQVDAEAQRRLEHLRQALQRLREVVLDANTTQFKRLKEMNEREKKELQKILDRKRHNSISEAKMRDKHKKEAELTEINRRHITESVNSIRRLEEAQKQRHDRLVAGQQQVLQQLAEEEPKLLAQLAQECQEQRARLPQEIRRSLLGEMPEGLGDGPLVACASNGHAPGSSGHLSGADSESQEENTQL
Sequence of 1-phosphatidylinositol 4,5-bisphosphate phosphodiesterase gamma-1 (P19174 whole entry): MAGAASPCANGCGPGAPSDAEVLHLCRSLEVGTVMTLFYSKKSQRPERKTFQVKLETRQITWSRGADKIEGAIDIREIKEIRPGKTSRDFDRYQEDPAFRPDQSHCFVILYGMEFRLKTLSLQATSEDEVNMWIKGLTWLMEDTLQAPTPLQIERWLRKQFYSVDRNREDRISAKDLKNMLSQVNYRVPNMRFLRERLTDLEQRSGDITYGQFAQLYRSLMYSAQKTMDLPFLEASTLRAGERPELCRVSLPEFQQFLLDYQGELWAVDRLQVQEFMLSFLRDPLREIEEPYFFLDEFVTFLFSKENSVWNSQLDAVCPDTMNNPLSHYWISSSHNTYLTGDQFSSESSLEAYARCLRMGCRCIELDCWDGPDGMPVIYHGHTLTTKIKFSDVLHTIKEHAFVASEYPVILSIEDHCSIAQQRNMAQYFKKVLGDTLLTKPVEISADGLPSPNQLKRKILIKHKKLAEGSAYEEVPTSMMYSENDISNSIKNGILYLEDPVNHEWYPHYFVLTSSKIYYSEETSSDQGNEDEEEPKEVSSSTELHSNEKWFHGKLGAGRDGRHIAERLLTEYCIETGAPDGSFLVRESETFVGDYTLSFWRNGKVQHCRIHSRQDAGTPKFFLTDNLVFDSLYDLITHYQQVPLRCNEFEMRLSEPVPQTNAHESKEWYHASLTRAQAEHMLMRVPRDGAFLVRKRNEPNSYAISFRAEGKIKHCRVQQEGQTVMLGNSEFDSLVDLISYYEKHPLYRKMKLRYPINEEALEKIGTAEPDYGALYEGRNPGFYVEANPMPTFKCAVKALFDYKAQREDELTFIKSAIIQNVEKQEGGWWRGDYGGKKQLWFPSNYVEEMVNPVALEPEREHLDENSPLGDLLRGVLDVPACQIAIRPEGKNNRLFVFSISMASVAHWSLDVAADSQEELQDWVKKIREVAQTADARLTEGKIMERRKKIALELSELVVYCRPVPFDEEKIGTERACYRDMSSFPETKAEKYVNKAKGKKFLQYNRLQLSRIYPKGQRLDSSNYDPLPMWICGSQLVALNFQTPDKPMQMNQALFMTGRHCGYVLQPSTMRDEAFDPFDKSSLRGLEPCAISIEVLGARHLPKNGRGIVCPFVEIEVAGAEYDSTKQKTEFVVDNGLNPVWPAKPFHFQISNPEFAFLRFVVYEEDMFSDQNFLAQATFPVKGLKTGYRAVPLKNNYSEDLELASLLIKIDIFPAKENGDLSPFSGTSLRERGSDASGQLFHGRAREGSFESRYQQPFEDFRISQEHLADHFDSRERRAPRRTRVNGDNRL
Sequence of Paired box protein Pax-8 (Q06710 whole entry): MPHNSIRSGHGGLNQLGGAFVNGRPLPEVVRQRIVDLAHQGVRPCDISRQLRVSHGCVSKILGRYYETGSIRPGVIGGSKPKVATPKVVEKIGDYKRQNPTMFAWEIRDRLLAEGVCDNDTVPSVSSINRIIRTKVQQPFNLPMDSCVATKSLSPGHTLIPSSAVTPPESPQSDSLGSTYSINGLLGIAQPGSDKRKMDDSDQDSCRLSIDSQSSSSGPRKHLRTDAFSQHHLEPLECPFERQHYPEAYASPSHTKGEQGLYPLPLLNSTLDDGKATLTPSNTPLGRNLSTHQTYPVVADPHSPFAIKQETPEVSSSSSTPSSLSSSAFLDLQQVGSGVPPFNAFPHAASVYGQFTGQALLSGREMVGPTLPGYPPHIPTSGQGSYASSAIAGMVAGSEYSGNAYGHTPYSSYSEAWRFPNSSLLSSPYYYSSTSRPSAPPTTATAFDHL

Q: Which EC50 [1] does the source give for Cc1occc1C(=O)N/N=C/c1ccc2c(c1)OCO2 here?
A: 8.43 µM (active)

Q: What about the AC50 [2] of the same molecule?
A: 4.17 µM (active)

Q: What about the EC50 [3] of the same molecule?
A: 1.4 µM (active)

Q: What about the EC50 [4] of the same molecule?
A: 1.77 µM (active)

Q: What about the EC50 [5] of the same molecule?
A: 16.8 µM (active)

Q: What about the EC50 [6] of the same molecule?
A: > 133 µM (inactive)

Q: What about the EC50 [7] of the same molecule?
A: 5.68 µM (active)

Q: And the EC50 [8]?
A: 7.36 µM (active)

Q: What about the AC50 [9] of the same molecule?
A: 8.12 µM (active)

Q: For COc1ccc(COc2ccc(C(=O)N3CCC[C@@H](CO)C3)cc2)cc1, which IC50 [10] is on record?
A: 6.84 µM (active)

Q: Which results are given for C[C@H](CO)N1C[C@H](C)[C@@H](CN(C)C(=O)Nc2cccc3ccccc23)OCCCC[C@H](C)Oc2ccc(NC(=O)c3ccncc3)cc2C1=O?
A: AC50 [11]: 49.1 µM (active); AC50 [12]: 3.61 µM (active)

Q: With O=C(CN1CCN(C(=O)C2CCC2)CC1)Nc1ccc(F)cc1 as the molecule, how does the AC50 [13] read?
A: 21.4 µM (active)

Q: And the AC50 [14]?
A: 28.2 µM (active)

Q: With Cc1ccc(NC(=O)CCN2CCc3ccccc3C2)cc1 as the molecule, how does the IC50 [15] read?
A: 7.46 µM (active)

Q: What about the EC50 [16] of the same molecule?
A: 1.12 µM (active)

Q: What about the EC50 [17] of the same molecule?
A: > 29.9 µM (inactive)

Q: What about the IC50 [18] of the same molecule?
A: > 29.9 µM (inactive)

Q: Which IC50 [19] does the source give for COc1ccc(C(=O)NCc2cc(C(C)C)no2)cc1OC1CCCN(C)C1 (centres undefined) here?
A: 1.25 µM (active)

Q: Which results are given for N=C(Cc1ccc(Cl)c(Cl)c1)NOC(=O)c1cccs1?
A: EC50 [20]: 11.6 µM (active); AC50 [21]: 3.01 µM (active); EC50 [22]: 0.376 µM (active); IC50 [23]: > 122 µM (inactive); IC50 [24]: > 122 µM (inactive); EC50 [25]: > 160 µM (inconclusive); EC50 [26]: > 180 µM (inactive)

Q: Which results are given for CCCOC(=O)c1ccc(OCC(O)Cn2c(C)nc3ccccc32)cc1 (centres undefined)?
A: AC50 [27]: 5.13 µM (active); EC50 [28]: 14.6 µM (active); AC50 [29]: 8.49 µM (active); AC50 [30]: 0.62 µM (active); EC50 [31]: > 29.9 µM (inactive); IC50 [32]: 1.57 µM (active); AC50 [33]: 3.38 µM (active); AC50 [34]: 35.6 µM (active)
